Results: the NIST ThermoML archive (doi:10.1016/j.jct.2005.03.016)

Experiment: xn = mol fraction of the nth substance listed
Details: Liquid, Vibrating tube method

CC1CCCCC1 [methylcyclohexane] + CCO
mass density [kg/m3]
Details | 100 kPa | 5000 kPa | 10000 kPa | 15000 kPa | 20000 kPa | 25000 kPa | 30000 kPa | 35000 kPa | 40000 kPa | 45000 kPa
283.15 K, x2 = 0 | 777.6 | 781.4 | 785.2 | 788.7 | 792.1 | 795.3 | 798.5 | 801.5 | 804.4 | 807.3
283.15 K, x2 = 0.052 | 777.6 | 781.4 | 785.1 | 788.7 | 792.1 | 795.4 | 798.5 | 801.6 | 804.5 | 807.4
283.15 K, x2 = 0.125 | 777.7 | 781.6 | 785.3 | 788.9 | 792.4 | 795.6 | 798.8 | 801.9 | 804.8 | 807.7
283.15 K, x2 = 0.25 | 778.5 | 782.4 | 786.2 | 789.8 | 793.2 | 796.6 | 799.7 | 802.8 | 805.8 | 808.7
283.15 K, x2 = 0.375 | 779.8 | 783.6 | 787.4 | 791.1 | 794.6 | 797.9 | 801.1 | 804.2 | 807.2 | 810.1
283.15 K, x2 = 0.5 | 781.4 | 785.3 | 789.1 | 792.8 | 796.3 | 799.6 | 802.8 | 806 | 809 | 811.9
283.15 K, x2 = 0.625 | 783.5 | 787.4 | 791.3 | 794.9 | 798.5 | 801.8 | 805.1 | 808.2 | 811.3 | 814.2
283.15 K, x2 = 0.75 | 786.4 | 790.4 | 794.3 | 797.9 | 801.5 | 804.9 | 808.1 | 811.3 | 814.3 | 817.2
283.15 K, x2 = 0.875 | 790.9 | 794.8 | 798.7 | 802.4 | 805.9 | 809.3 | 812.6 | 815.8 | 818.8 | 821.8
293.15 K, x2 = 0 | 769 | 773 | 777 | 780.7 | 784.3 | 787.8 | 791.1 | 794.2 | 797.3 | 800.2
293.15 K, x2 = 0.052 | 768.8 | 772.8 | 776.8 | 780.6 | 784.2 | 787.6 | 790.9 | 794.1 | 797.2 | 800.2
293.15 K, x2 = 0.125 | 768.9 | 772.9 | 776.9 | 780.7 | 784.4 | 787.8 | 791.2 | 794.4 | 797.5 | 800.5
293.15 K, x2 = 0.25 | 769.6 | 773.7 | 777.8 | 781.6 | 785.2 | 788.7 | 792.1 | 795.3 | 798.4 | 801.5
293.15 K, x2 = 0.375 | 770.8 | 774.9 | 779 | 782.8 | 786.5 | 790 | 793.4 | 796.7 | 799.8 | 802.8
293.15 K, x2 = 0.5 | 772.5 | 776.6 | 780.7 | 784.5 | 788.2 | 791.8 | 795.2 | 798.4 | 801.6 | 804.6
293.15 K, x2 = 0.625 | 774.6 | 778.8 | 782.9 | 786.8 | 790.5 | 794 | 797.4 | 800.7 | 803.9 | 806.9
293.15 K, x2 = 0.75 | 777.7 | 781.8 | 785.9 | 789.9 | 793.6 | 797.1 | 800.5 | 803.8 | 807 | 810
293.15 K, x2 = 0.875 | 782.2 | 786.4 | 790.5 | 794.4 | 798.1 | 801.7 | 805.1 | 808.4 | 811.6 | 814.6
303.15 K, x2 = 0 | 760.4 | 764.7 | 768.9 | 772.8 | 776.6 | 780.2 | 783.7 | 787 | 790.2 | 793.3
303.15 K, x2 = 0.052 | 760.1 | 764.4 | 768.6 | 772.6 | 776.5 | 780.1 | 783.6 | 786.9 | 790.1 | 793.2
303.15 K, x2 = 0.125 | 760.1 | 764.4 | 768.6 | 772.7 | 776.5 | 780.2 | 783.6 | 787 | 790.3 | 793.4
303.15 K, x2 = 0.25 | 760.7 | 765.1 | 769.4 | 773.4 | 777.3 | 781 | 784.5 | 787.9 | 791.2 | 794.3
303.15 K, x2 = 0.375 | 761.9 | 766.3 | 770.6 | 774.7 | 778.6 | 782.3 | 785.8 | 789.2 | 792.5 | 795.7
303.15 K, x2 = 0.5 | 763.6 | 768 | 772.3 | 776.4 | 780.3 | 784 | 787.6 | 791 | 794.3 | 797.4
303.15 K, x2 = 0.625 | 765.8 | 770.2 | 774.5 | 778.6 | 782.5 | 786.3 | 789.9 | 793.3 | 796.6 | 799.8
303.15 K, x2 = 0.75 | 768.9 | 773.3 | 777.7 | 781.8 | 785.7 | 789.4 | 793.1 | 796.5 | 799.8 | 803
303.15 K, x2 = 0.875 | 773.5 | 777.9 | 782.3 | 786.4 | 790.3 | 794 | 797.6 | 801.1 | 804.4 | 807.6
313.15 K, x2 = 0 | 751.7 | 756.2 | 760.7 | 764.8 | 768.8 | 772.7 | 776.3 | 779.8 | 783.1 | 786.4
313.15 K, x2 = 0.052 | 751.1 | 755.7 | 760.1 | 764.4 | 768.4 | 772.2 | 775.9 | 779.4 | 782.8 | 786.1
313.15 K, x2 = 0.125 | 751 | 755.7 | 760.2 | 764.5 | 768.5 | 772.4 | 776.1 | 779.6 | 783 | 786.3
313.15 K, x2 = 0.25 | 751.6 | 756.3 | 760.9 | 765.2 | 769.3 | 773.2 | 776.9 | 780.5 | 783.9 | 787.2
313.15 K, x2 = 0.375 | 752.7 | 757.4 | 762 | 766.4 | 770.5 | 774.4 | 778.1 | 781.7 | 785.2 | 788.5
313.15 K, x2 = 0.5 | 754.4 | 759.1 | 763.7 | 768.1 | 772.2 | 776.1 | 779.9 | 783.5 | 786.9 | –
313.15 K, x2 = 0.625 | 756.7 | 761.4 | 766 | 770.4 | 774.5 | 778.4 | 782.2 | 785.8 | 789.3 | –
313.15 K, x2 = 0.75 | 759.9 | 764.6 | 769.2 | 773.6 | 777.7 | 781.6 | 785.4 | 789 | 792.5 | –
313.15 K, x2 = 0.875 | 764.7 | 769.3 | 773.9 | 778.3 | 782.4 | 786.3 | 790.1 | 793.7 | 797.1 | –
